Laboratory results taken from a compilation of properties of binary mixtures (doi:10.1016/j.molliq.2016.02.091).

Test: xn = mol fraction of the nth substance listed
Details: 101 kPa

CC[n+]1ccn(C)c1.COS(=O)(=O)[O-] + CC(=O)O
speed of sound [m/s]
Details | x2 = 0 | x2 = 0.1669 | x2 = 0.3003 | x2 = 0.5004 | x2 = 0.6432 | x2 = 0.7503 | x2 = 0.8336 | x2 = 0.9001 | x2 = 0.9546 | x2 = 0.9783
298.15 K | 1758 | 1713 | 1665 | 1593 | 1501 | 1419 | – | 1274 | 1202 | –
303.15 K | 1745 | 1702 | 1650 | 1580 | – | 1403 | – | 1258 | – | 1151
308.15 K | 1734 | – | 1641 | 1568 | 1473 | 1391 | 1318 | 1246 | 1172 | 1136
313.15 K | 1723 | 1681 | 1624 | – | 1456 | 1371 | 1298 | 1225 | 1152 | 1116

CC[n+]1ccn(C)c1.COS(=O)(=O)[O-] + CCC(=O)O
speed of sound [m/s]
Details | x2 = 0 | x2 = 0.1332 | x2 = 0.2478 | x2 = 0.4345 | x2 = 0.5804 | x2 = 0.6975 | x2 = 0.7935 | x2 = 0.8737 | x2 = 0.9417 | x2 = 0.9719
298.15 K | 1758 | 1715 | 1669 | 1590 | 1509 | 1430 | 1356 | 1285 | 1215 | –
303.15 K | 1745 | 1701 | 1656 | 1576 | 1493 | 1413 | 1339 | 1267 | 1197 | 1162
308.15 K | 1734 | 1689 | 1642 | 1563 | 1478 | 1396 | 1321 | 1249 | 1178 | 1143
313.15 K | 1723 | 1678 | 1630 | 1549 | 1462 | 1380 | 1304 | 1231 | 1160 | –

CC(=O)O + CC[n+]1ccn(C)c1.COS(=O)(=O)[O-]
x1 = 1
Details | speed of sound [m/s]
298.15 K | 1133
303.15 K | 1117
308.15 K | 1102
313.15 K | 1082

CCC(=O)O + CC[n+]1ccn(C)c1.COS(=O)(=O)[O-]
x1 = 1
Details | speed of sound [m/s]
303.15 K | 1129
308.15 K | 1110
